Laboratory results: patent publication US12329788B2, “Synbiotic compositions” (Evonik Operations GmbH, priority 2018, dated 2025)
Where a SMILES comes first, the peptide text is derived from it.

Tests used:
Clostridium XI cluster = test: i-screen microbiota composition by 16S rRNA V4 sequencing, Clostridium XI; type: cell-based, human; details: for Clostridium_XI relative abundance: 24 h SIEM, amino acids 3.5 mM, dipeptides 7 mM; for effect on Clostridia XI group: Example 8, dipeptides 7 mM, 0% O2
Excerpt: (§1) To determine the effect of the probiotic strains Bacillus subtilis DSM 32315, Bacillus subtilis DSM 32540, Bacillus licheniformis DSM 32314 and Bacillus amyloliquefaciens CECT 5940 on adult colonic microbiota, an intestinal screening model was used (i-screen, TNO, the Netherlands). Therefore the i-screen model was inoculated with standard human adult fecal microbiota material, which consisted of pooled fecal donations from 6 healthy adult volunteers (Caucasian, European lifestyle and nutrition). The fecal material was mixed and grown in a fed-batch fermenter for 40 hours to create a standardized microbiota as described previously. These standard adult gut microbiota sets were stored at −80° C. in 12% glycerol.
(§2) The intestinal microbiota was cultured in vitro in modified standard ileal efflux medium (SIEM), the composition of which was described by and modified as follows: 0.047 g/l pectin, 0.047 g/l xylan, 0.047 g/l arabinogalactan, 0.047 g/l amylopectin, 0.392 g/l starch, 24.0 g/l casein, 24.0 Bacto pepton, 0.4 ox-bile and 0.2 g/l cysteine. All components were supplied by Trititium Microbiology (Veldhoven, The Netherlands). The pH of the medium was adjusted to 5.8.
For the i-screen fermentations, the precultured standardized fecal inoculum was diluted 50 times in 1350 μl modified SIEM. All experiments have been carried out in triplicates. The strains Bacillus subtilis (DSM 32315), Bacillus subtilis DSM 32540, Bacillus licheniformis DSM 32314 and Bacillus amyloliquefaciens CECT 5940 were precultured separately in 50 ml LBKelly medium, for about 16 h. Incubation was done in shaking flasks at 37° C. under aerobic conditions. After incubation, bacterial density was determined by optical density measurement at 600 nm. A final stock solution of 1×10^10 cells/ml was prepared in 1 ml buffer solution (0.1 mM MES pH 6). […]
(§3) DNA extraction for the sequencing of 16S rRNA coding genes was performed as described by Ladirat et al. (2013) with some minor modifications. Approximately 100 μl of the culture materials were added to the wells of a 96 well plate containing per well 300 μl of lysis buffer (Mag Mini DNA Isolation Kit, LGC ltd, UK), 500 μl zirconium beads (0.1 mm; BioSpec products, Bartlesville, OK, USA) and 500 μl of phenol saturated with Tris-HCI (pH 8.0; Carl Roth GMBH, Germany). The 96 well plate was placed in a Mini-BeadBeater-96 (BioSpec products, Bartlesville, Okla, USA) for 2 min at 2100 oscillations/min. DNA was subsequently purified using the Agowa Mag Mini DNA Isolation Kit according to the manufacturer recommendations. Extracted DNA was eluted in a final volume of 60 μl buffer.
(§4) The microbiota composition was analyzed by 16S rRNA gene amplicon sequencing of the V4 Hypervariable Region. This was Achieved Through a Series of Steps:
(§5) Subsequently, PCR amplicons of the V4 hypervariable region of the 16S rRNA gene were generated for the individual samples by amplification of […] of DNA as described by (2013), using F515/R806 primers. Primers included Illumina adapters and a unique 8-nt sample index sequence key. A mock control was included for technical quality control. The amount of amplified DNA per sample was quantified using the dsDNA 910 Reagent Kit on the Fragment Analyzer (Advanced Analytical). The amplicon libraries were pooled in equimolar amounts and purified from 1,2% agarose gel using the Gel Extraction Kit (Qiagen). The Library was quantified using the Quant-iT™ PicoGreen® dsDNA Assay Kit (Thermo Fisher Scientific). Paired-end sequencing of amplicons was conducted on the Illumina MiSeq platform (Illumina, Eindhoven, The Netherlands).
(§6) The sequence data was processed with Mothur v.1.36.1 [26] in line with the mothur MiSeq SOP [24].

Clostridium XIVa cluster = test: i-screen microbiota composition by 16S rRNA V4 sequencing, Clostridium XIVa; type: cell-based, human; details: 24 h SIEM, amino acids 3.5 mM, dipeptides 7 mM
Excerpt: as §1, §2
For the i-screen fermentations, the precultured standardized fecal inoculum was diluted 50 times in 1350 μl modified SIEM. All experiments have been carried out in triplicates. The strains Bacillus subtilis (DSM 32315), Bacillus subtilis DSM 32540, Bacillus licheniformis DSM 32314 and Bacillus amyloliquefaciens CECT 5940 were precultured separately in 50 ml LBKelly medium, for about 16 h. Incubation was done in shaking flasks at 37° C. under aerobic conditions. After incubation, bacterial density was determined by optical density measurement at 600 nm. A final stock solution of 1×10^10 cells/ml was prepared in 1 ml buffer solution (0.1 mM MES pH 6). The suspension of each strain was introduced into the i-screen to a final level of about 10^9 cells/ml, respectively
The i-screen incubation was performed under following gas conditions: 0.2% O2, 0.2% CO2, 10% H2, 89.6% N2.
as §3, §4, §5, §6

[1] = infused, post-operative anaesthetized dogs; cited from earlier work
[2] = oral supplementation, guinea-pigs treated with methotrexate; cited from earlier work
gut microbiota = details: oral supplementation, overweight humans; cited from earlier work
[3] = microbiota + CECT 5940 (first group so headed, r13-r15)
[4] = microbiota + CECT 5940 (second group so headed, r16-r18)

| SMILES | Clostridium_XI relative abundance (Clostridium XI cluster; [3]) [%] | Clostridium_XI relative abundance (Clostridium XI cluster; [4]) [%] | Clostridium_XI relative abundance (Clostridium XI cluster; microbiota + DSM 32315) [%] | Clostridium_XI relative abundance (Clostridium XI cluster; microbiota, no probiotic cells) [%] | Clostridium_XIVa relative abundance (Clostridium XIVa cluster; [3]) [%] | Clostridium_XIVa relative abundance (Clostridium XIVa cluster; [4]) [%] | Clostridium_XIVa relative abundance (Clostridium XIVa cluster; microbiota + DSM 32315) [%] | Clostridium_XIVa relative abundance (Clostridium XIVa cluster; microbiota, no probiotic cells) [%] | effect on Clostridia XI group (Clostridium XI cluster) | extraction of the amino acids by skeletal muscle [1] | mortality [2] | Firmicutes to Bacteriodetes ratio (gut microbiota) |
| --- | --- | --- | --- | --- | --- | --- | --- | --- | --- | --- | --- | --- |
| CC(=O)N[C@@H](C)C(=O)N[C@@H](CCC(N)=O)C(=O)O [Ac-Ala-Gln] (Ac-Ala-Gln-OH) | 21 | 20 | 31 | 27 | 1 | 4 | 2 | 1 | – | – | – | – |
| C[C@H](N)C(=O)N[C@@H](CCC(N)=O)C(=O)O [Ala-Gln, Alanine-Glutamine] (H-Ala-Gln-OH) | 0 | 0 | 0 | 0 | 10 | 6 | 4 | 2 | reduced the Clostridia XI group almost completely | extracted by skeletal muscle almost as well as from mixtures of alanine and glutamine | – | – |
| NC(=O)CC[C@H](N)C(=O)O [Gln, glutamine, reference compound] | 20 | 21 | 24 | 28 | 1 | 9 | 2 | 1 | – | – | reduced mortality | reducing the Firmicutes to Bacteriodetes ratio |
| N[C@@H](CCC(=O)O)C(=O)O [Glu, glutamic acid, reference compound] | 26 | 18 | 25 | 27 | 1 | 1 | 3 | 1 | – | – | – | – |
| NCC(=O)O.N[C@@H](CCC(=O)O)C(=O)O [Gly-Glu, Glycine-Glutamic acid] | 0 | 0 | 0 | 0 | 9 | 10 | 8 | 4 | reduced the Clostridia XI group almost completely | – | – | – |
